Source: patent publication US11919887B2, “Substituted tetrahydrofurans as modulators of sodium channels” (Vertex Pharmaceuticals Incorporated, priority 2019, dated 2024)
Where two headings read alike, the source gives them in different places.

Target: human Nav 1.8 (Homo sapiens, UniProt Q9Y5Y9)
Assay: E-VIPR assay detecting and measuring Nav inhibition (HEK cells expressing truncated human Nav 1.8)
Assay type: cell-based
In short: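 HEK cells expressing truncated human Nav1.8, transduced with KIR2.1 BacMam, were loaded with CC2-DMPE/DiSBAC6(3) FRET dyes and tested under electrical stimulation (E-VIPR). Compounds were run as 11-point 3-fold dilutions, top 300 nM final, 0.625% DMSO, with or without 25% human serum.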

[1] = in the Presence of Human Serum in the E-VIPR Assay, read-out: IC50
[2] = in the Absence of Human Serum in the E-VIPR Assay
[3] = in the Absence of Human Serum in the E-VIPR Assay, read-out: IC50

human Nav 1.8, sequence (Q9Y5Y9 whole entry, looked up, the tested form may be a part): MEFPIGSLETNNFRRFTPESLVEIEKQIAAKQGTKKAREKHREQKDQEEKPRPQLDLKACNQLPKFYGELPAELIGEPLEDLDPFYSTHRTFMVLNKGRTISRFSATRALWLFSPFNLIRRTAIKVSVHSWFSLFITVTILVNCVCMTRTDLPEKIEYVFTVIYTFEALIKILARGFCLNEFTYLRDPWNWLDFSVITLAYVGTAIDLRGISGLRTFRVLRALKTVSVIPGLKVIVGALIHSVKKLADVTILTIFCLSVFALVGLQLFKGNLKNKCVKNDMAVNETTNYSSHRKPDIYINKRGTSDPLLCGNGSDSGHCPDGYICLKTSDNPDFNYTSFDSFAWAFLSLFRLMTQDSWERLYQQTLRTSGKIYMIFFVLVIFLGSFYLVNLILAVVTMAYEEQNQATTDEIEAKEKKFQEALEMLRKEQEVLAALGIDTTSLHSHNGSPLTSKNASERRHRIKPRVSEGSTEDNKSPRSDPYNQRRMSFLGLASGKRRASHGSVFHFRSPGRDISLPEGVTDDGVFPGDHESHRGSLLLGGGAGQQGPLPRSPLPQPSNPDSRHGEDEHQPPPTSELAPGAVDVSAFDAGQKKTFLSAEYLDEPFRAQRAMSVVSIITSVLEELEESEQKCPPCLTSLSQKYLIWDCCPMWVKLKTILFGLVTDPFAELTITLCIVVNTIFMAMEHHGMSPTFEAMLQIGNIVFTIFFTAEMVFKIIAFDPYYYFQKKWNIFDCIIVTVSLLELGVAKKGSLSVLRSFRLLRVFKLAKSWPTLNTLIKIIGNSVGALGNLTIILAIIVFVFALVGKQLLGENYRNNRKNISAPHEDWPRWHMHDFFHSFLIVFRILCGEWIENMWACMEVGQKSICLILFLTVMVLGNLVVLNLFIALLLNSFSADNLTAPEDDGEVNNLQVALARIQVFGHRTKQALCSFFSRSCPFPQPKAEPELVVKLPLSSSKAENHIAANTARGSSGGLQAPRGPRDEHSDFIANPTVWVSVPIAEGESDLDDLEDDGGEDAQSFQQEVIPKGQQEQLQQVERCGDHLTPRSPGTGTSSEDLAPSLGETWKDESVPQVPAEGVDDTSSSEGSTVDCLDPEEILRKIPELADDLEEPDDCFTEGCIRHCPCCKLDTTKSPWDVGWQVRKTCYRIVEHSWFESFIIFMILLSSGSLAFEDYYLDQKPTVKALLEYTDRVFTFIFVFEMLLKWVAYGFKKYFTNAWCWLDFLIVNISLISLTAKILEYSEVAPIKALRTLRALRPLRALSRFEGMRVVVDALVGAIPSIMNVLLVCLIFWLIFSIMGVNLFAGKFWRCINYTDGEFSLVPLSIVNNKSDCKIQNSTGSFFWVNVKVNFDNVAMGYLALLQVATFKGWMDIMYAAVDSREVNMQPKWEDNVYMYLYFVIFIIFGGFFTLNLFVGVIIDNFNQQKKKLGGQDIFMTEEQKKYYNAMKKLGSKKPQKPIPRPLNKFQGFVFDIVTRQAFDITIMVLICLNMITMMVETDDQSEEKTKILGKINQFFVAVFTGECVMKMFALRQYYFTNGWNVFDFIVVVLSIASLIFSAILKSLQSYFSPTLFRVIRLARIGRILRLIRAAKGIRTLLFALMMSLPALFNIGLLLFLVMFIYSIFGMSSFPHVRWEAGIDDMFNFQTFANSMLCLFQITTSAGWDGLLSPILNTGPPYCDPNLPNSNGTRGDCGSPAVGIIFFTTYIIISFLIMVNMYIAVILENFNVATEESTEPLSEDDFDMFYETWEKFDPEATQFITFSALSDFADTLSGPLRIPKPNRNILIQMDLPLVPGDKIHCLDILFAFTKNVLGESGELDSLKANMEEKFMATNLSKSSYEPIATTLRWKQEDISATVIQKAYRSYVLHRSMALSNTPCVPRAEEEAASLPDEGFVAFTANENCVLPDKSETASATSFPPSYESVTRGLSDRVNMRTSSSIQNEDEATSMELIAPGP

Row | Structure (SMILES) | IC50 [1] [nM] | IC50 [3] [nM] | other results
1 | CCOc1c([C@H]2[C@H](C(=O)Nc3ccnc(C(N)=O)c3)O[C@@](C)(C(F)(F)F)[C@H]2C)ccc(F)c1F [Compound 9, (2R,3S,4S,5R)-4-[[3-(2-ethoxy-3,4-difluoro-phenyl)-4,5-dimethyl-5-(trifluoromethyl)tetrahydrofuran-2-carbonyl]amino]pyridine-2-carboxamide] | < 10 | – | –
2 | C[C@@H]1[C@H](c2ccc(F)c(F)c2OC(F)F)[C@@H](C(=O)Nc2ccnc(C(N)=O)c2)O[C@]1(C)C(F)(F)F [Compound 10, (2S,3R,4R,5S)-4-[[3-[2-(difluoromethoxy)-3,4-difluoro-phenyl]-4,5-dimethyl-5-(trifluoromethyl)tetrahydrofuran-2-carbonyl]amino]pyridine-2-carboxamide] | > 1000 | – | –
3 | C[C@H]1[C@@H](c2ccc(F)c(F)c2OC(F)F)[C@H](C(=O)Nc2ccnc(C(N)=O)c2)O[C@@]1(C)C(F)(F)F [Compound 11, (2R,3S,4S,5R)-4-[[3-[2-(difluoromethoxy)-3,4-difluoro-phenyl]-4,5-dimethyl-5-(trifluoromethyl)tetrahydrofuran-2-carbonyl]amino]pyridine-2-carboxamide] | < 10 | – | –
4 | C[C@H]1[C@@H](c2ccc(F)c(F)c2OC(F)F)[C@H](C(=O)Nc2cc[n+]([O-])c(C(N)=O)c2)O[C@@]1(C)C(F)(F)F [Compound 18, (2R,3S,4S,5R)-4-[[3-[2-(difluoromethoxy)-3,4-difluoro-phenyl]-4,5-dimethyl-5-(trifluoromethyl)tetrahydrofuran-2-carbonyl]amino]-1-oxido-pyridin-1-ium-2-carboxamide] | < 10 | – | –
5 | COc1c([C@H]2[C@H](C(=O)Nc3cc[n+]([O-])c(C(N)=O)c3)O[C@@](C)(C(F)(F)F)[C@H]2C)ccc(F)c1F [Compound 19, (2R,3S,4S,5R)-4-[[3-(3,4-difluoro-2-methoxy-phenyl)-4,5-dimethyl-5-(trifluoromethyl)tetrahydrofuran-2-carbonyl]amino]-1-oxido-pyridin-1-ium-2-carboxamide] | < 10 | – | –
6 | COc1c([C@H]2C[C@](C)(C(F)(F)F)O[C@@H]2C(=O)Nc2ccnc(C(N)=O)c2)ccc(F)c1Cl [Compound 21, (2S,3R,5R)-4-[[3-(3-chloro-4-fluoro-2-methoxy-phenyl)-5-methyl-5-(trifluoromethyl)tetrahydrofuran-2-carbonyl]amino]pyridine-2-carboxamide] | > 1000 | – | –
7 | COc1c([C@@H]2C[C@@](C)(C(F)(F)F)O[C@H]2C(=O)Nc2ccnc(C(N)=O)c2)ccc(F)c1Cl [Compound 23, (2R,3S,5S)-4-[[3-(3-chloro-4-fluoro-2-methoxy-phenyl)-5-methyl-5-(trifluoromethyl)tetrahydrofuran-2-carbonyl]amino]pyridine-2-carboxamide] | 10 to 100 | – | –
8 | C[C@H]1[C@@H](c2ccc(F)c(F)c2O)[C@H](C(=O)Nc2ccnc(C(N)=O)c2)O[C@@]1(C)C(F)(F)F [Compound 27, (2R,3S,4S,5R)-4-[[3-(3,4-difluoro-2-hydroxy-phenyl)-4,5-dimethyl-5-(trifluoromethyl)tetrahydrofuran-2-carbonyl]amino]pyridine-2-carboxamide] | 10 to 100 | – | –
9 | COc1c([C@@H]2[C@@H](C)[C@](C)(C(F)(F)F)O[C@H]2C(=O)Nc2ccnc(C(N)=O)c2)ccc(F)c1F [Compound 50, 4-[[(2R,3S,4R,5R)-3-(3,4-difluoro-2-methoxy-phenyl)-4,5-dimethyl-5-(trifluoromethyl)tetrahydrofuran-2-carbonyl]amino]pyridine-2-carboxamide] | – | – | IC50 [2]: 10 to 100 nM
10 | CCOc1c([C@H]2[C@H](C(=O)Nc3cc[n+]([O-])c(C(N)=O)c3)O[C@@](C)(C(F)(F)F)[C@H]2C)ccc(F)c1F [Compound 55, (2R,3S,4S,5R)-4-[[3-(2-ethoxy-3,4-difluoro-phenyl)-4,5-dimethyl-5-(trifluoromethyl)tetrahydrofuran-2-carbonyl]amino]-1-oxido-pyridin-1-ium-2-carboxamide] | < 10 | – | –
11 | [2H]C([2H])([2H])Oc1c([C@H]2[C@H](C(=O)Nc3cc[n+]([O-])c(C(N)=O)c3)O[C@@](C)(C(F)(F)F)[C@H]2C)ccc(F)c1F [Compound 56, 4-[[(2R,3S,4S,5R)-3-[3,4-difluoro-2-(trideuteriomethoxy)phenyl]-4,5-dimethyl-5-(trifluoromethyl)tetrahydrofuran-2-carbonyl]amino]-1-oxido-pyridin-1-ium-2-carboxamide] | < 10 | – | –
12 | C[C@H]1[C@@H](c2ccc(F)c(F)c2O)[C@H](C(=O)Nc2cc[n+]([O-])c(C(N)=O)c2)O[C@@]1(C)C(F)(F)F [Compound 57, 4-[[(2R,3S,4S,5R)-3-(3,4-difluoro-2-hydroxy-phenyl)-4,5-dimethyl-5-(trifluoromethyl)tetrahydrofuran-2-carbonyl]amino]-1-oxido-pyridin-1-ium-2-carboxamide] | > 1000 | – | –
13 | COc1c([C@@H]2[C@H](C)[C@H](C(C)C)O[C@H]2C(=O)Nc2ccnc(C(N)=O)c2)ccc(F)c1F [Compound 113, 4-[[(2R,3S,4S,5S)-3-(3,4-difluoro-2-methoxy-phenyl)-5-isopropyl-4-methyl-tetrahydrofuran-2-carbonyl]amino]pyridine-2-carboxamide] | 10 to 100 | – | –
14 | COc1c([C@H]2[C@H](C(=O)Nc3cccc(C(N)=O)n3)O[C@@](C)(C(F)(F)F)[C@H]2C)ccc(F)c1F [Compound 114, 6-[[(2R,3S,4S,5R)-3-(3,4-difluoro-2-methoxy-phenyl)-4,5-dimethyl-5-(trifluoromethyl)tetrahydrofuran-2-carbonyl]amino]pyridine-2-carboxamide] | – | 10 to 100 | –
15 | COc1c([C@H]2[C@H](C(=O)Nc3cncc(C(N)=O)n3)O[C@@](C)(C(F)(F)F)[C@H]2C)ccc(F)c1F [Compound 117, 6-[[(2R,3S,4S,5R)-3-(3,4-difluoro-2-methoxy-phenyl)-4,5-dimethyl-5-(trifluoromethyl)tetrahydrofuran-2-carbonyl]amino]pyrazine-2-carboxamide] | – | 10 to 100 | –
16 | COc1c([C@H]2[C@H](C(=O)Nc3cncc(C(N)=O)c3)O[C@@](C)(C(F)(F)F)[C@H]2C)ccc(F)c1F [Compound 118, 5-[[(2R,3S,4S,5R)-3-(3,4-difluoro-2-methoxy-phenyl)-4,5-dimethyl-5-(trifluoromethyl)tetrahydrofuran-2-carbonyl]amino]pyridine-3-carboxamide] | – | < 10 | –
17 | COc1c([C@H]2[C@H](C(=O)Nc3cc(C(N)=O)ncc3C)O[C@@](C)(C(F)(F)F)[C@H]2C)ccc(F)c1F [Compound 119, 4-[[(2R,3S,4S,5R)-3-(3,4-difluoro-2-methoxy-phenyl)-4,5-dimethyl-5-(trifluoromethyl)tetrahydrofuran-2-carbonyl]amino]-5-methyl-pyridine-2-carboxamide] | – | < 10 | –
18 | COc1c([C@H]2[C@H](C(=O)Nc3cc(C(N)=O)ccn3)O[C@@](C)(C(F)(F)F)[C@H]2C)ccc(F)c1F [Compound 120, 2-[[(2R,3S,4S,5R)-3-(3,4-difluoro-2-methoxy-phenyl)-4,5-dimethyl-5-(trifluoromethyl)tetrahydrofuran-2-carbonyl]amino]pyridine-4-carboxamide] | – | 10 to 100 | –
19 | COc1c([C@H]2[C@H](C(=O)Nc3cc(C(N)=O)ncn3)O[C@@](C)(C(F)(F)F)[C@H]2C)ccc(F)c1F [Compound 121, 6-[[(2R,3S,4S,5R)-3-(3,4-difluoro-2-methoxy-phenyl)-4,5-dimethyl-5-(trifluoromethyl)tetrahydrofuran-2-carbonyl]amino]pyrimidine-4-carboxamide] | – | < 10 | –
20 | COc1c([C@H]2[C@H](C(=O)Nc3cc(C(N)=O)ncc3F)O[C@@](C)(C(F)(F)F)[C@H]2C)ccc(F)c1F [Compound 122, 4-[[(2R,3S,4S,5R)-3-(3,4-difluoro-2-methoxy-phenyl)-4,5-dimethyl-5-(trifluoromethyl)tetrahydrofuran-2-carbonyl]amino]-5-fluoro-pyridine-2-carboxamide] | – | < 10 | –
21 | COc1c([C@H]2[C@H](C(=O)Nc3ccc(F)c(C(N)=O)c3)O[C@@](C)(C(F)(F)F)[C@H]2C)ccc(F)c1F [Compound 123, (2R,3S,4S,5R)-N-(3-carbamoyl-4-fluoro-phenyl)-3-(3,4-difluoro-2-methoxy-phenyl)-4,5-dimethyl-5-(trifluoromethyl)tetrahydrofuran-2-carboxamide] | – | < 10 | –
22 | [2H]c1cnc(C(N)=O)cc1NC(=O)[C@@H]1O[C@@](C)(C(F)(F)F)[C@@H](C)[C@H]1c1ccc(F)c(F)c1OC [Compound 124, 5-deuterio-4-[[(2R,3S,4S,5R)-3-(3,4-difluoro-2-methoxy-phenyl)-4,5-dimethyl-5-(trifluoromethyl)tetrahydrofuran-2-carbonyl]amino]pyridine-2-carboxamide] | – | – | IC50 [2]: < 10 nM
23 | COc1c([C@H]2[C@H](C(=O)Nc3ccnc(C(N)=O)c3F)O[C@@](C)(C(F)(F)F)[C@H]2C)ccc(F)c1F [Compound 126, 4-[[(2R,3S,4S,5R)-3-(3,4-difluoro-2-methoxy-phenyl)-4,5-dimethyl-5-(trifluoromethyl)tetrahydrofuran-2-carbonyl]amino]-3-fluoro-pyridine-2-carboxamide] | – | < 10 | –
24 | COc1c([C@H]2[C@H](C(=O)Nc3cc(F)nc(C(N)=O)c3)O[C@@](C)(C(F)(F)F)[C@H]2C)ccc(F)c1F [Compound 127, 4-[[(2R,3S,4S,5R)-3-(3,4-difluoro-2-methoxy-phenyl)-4,5-dimcthyl-5-(trifluoromethyl)tetrahydrofuran-2-carbonyl]amino]-6-fluoro-pyridine-2-carboxamide] | – | < 10 | –
25 | [2H]c1c(NC(=O)[C@@H]2O[C@@](C)(C(F)(F)F)[C@@H](C)[C@H]2c2ccc(F)c(F)c2OC)ccnc1C(N)=O [Compound 129, 3-deuterio-4-[[(2R,3S,4S,5R)-3-(3,4-difluoro-2-methoxy-phenyl)-4,5-dimethyl-5-(trifluoromethyl)tetrahydrofuran-2-carbonyl]amino]pyridine-2-carboxamide] | – | – | IC50 [2]: < 10 nM
